Test results: patent US20020026053A1, “Novel 3-(substituted) -2- indolinones compounds and use thereof as inhibitors of protein kinase activity” (priority 1997, published 2002)

Tests used:
[1] = test system: FLK-1 receptor; experiment: FLK-1 Assay (cellular/catalytic ELISA, VEGF-stimulated phosphotyrosine); type: cell-based; parameters: concentration or dose not given beside the values; settings: protocol P.110
In short: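 Receptor phosphotyrosine ELISA: Flk-1-expressing NIH3T3 C7#3 cells, starved overnight in 0.1% FBS medium, received compound (1:200 final dilution, 0.5% DMSO) for 2 h at 37 °C, then VEGF. Anti-FLK-1-captured receptor was probed with anti-phosphotyrosine UB40 and peroxidase/ABTS read-out, relative to cells without compound.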

[2] = test system: PDGF-R; experiment: PDGF-R Assay (cellular ELISA, U1242 cells); type: cell-based; parameters: concentration or dose not given beside the values; settings: protocol P.119
In short: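 Cellular ELISA for receptor autophosphorylation: after 2 hr test-compound treatment of serum-free U1242 cells at 37°C, ligand is added for 5–10 min, cells are lysed (HNTG) and receptor captured by specific antibody. Anti-phosphotyrosine plus secondary antibody with ABTS colour read at 410/630 nm, compared with compound-free control cells.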

Row | SMILES | Flk Kinase % Inhibition (P.110) [1] [%] | PDGF Kinase % Inhibition (P.119) [2] [%]
1 | Cc1c(Br)cc(Br)c2c1C(=Cc1cc(O)cc(O)c1)C(=O)N2 [10738/H07] | −17.4 | –
2 | Cc1c(Br)cc(Br)c2c1C(=Cc1ccc(Cl)c(Cl)c1)C(=O)N2 [10738/H08] | −12.7 | –
3 | COc1ccccc1C=C1C(=O)Nc2c(Br)cc(Br)c(C)c21 [10738/H09] | −6.5 | –
4 | Cc1c(Br)cc(Br)c2c1C(=Cc1ccc(C(C)C)cc1)C(=O)N2 [10738/H10] | 1.7 | –
5 | CCCOc1ccc(C=C2C(=O)Nc3c(Br)cc(Br)c(C)c32)cc1 [10738/H11] | −4.1 | –
6 | COc1ccc(C=C2C(=O)Nc3c(Br)cc(Br)cc32)cc1C [10739/A02] | 1.2 | 21.7
7 | O=C1Nc2c(Br)cc(Br)cc2C1=Cc1cccc(OCc2ccccc2)c1 [10739/A03] | 2.9 | 15.4
8 | O=C1Nc2c(Br)cc(Br)cc2C1=Cc1ccc(OCc2ccccc2)cc1 [10739/A04] | −8.2 | 23.2
9 | O=C1Nc2c(Br)cc(Br)cc2C1=CC1COc2ccccc2O1 (stereo not drawn) [10739/A05] | −11.0 | 15.9
10 | O=C1Nc2c(Br)cc(Br)cc2C1=Cc1ccc(O)cc1Cl [10739/A06] | 7.4 | 17.8
11 | O=C1Nc2c(Br)cc(Br)cc2C1=Cc1cc(O)c(O)c(O)c1 [10739/A07] | 4.1 | 34.8
12 | COc1ccc(Oc2cccc(C=C3C(=O)Nc4c(Br)cc(Br)cc43)c2)cc1 [10739/A08] | −25.5 | 3.8
13 | CN(C)CCCOc1ccc(C=C2C(=O)Nc3c(Br)cc(Br)cc32)cc1 [10739/A09] | −9.1 | −0.6
14 | O=C1Nc2c(Br)cc(Br)cc2C1=Cc1ccoc1 [10739/A10] | −2.5 | −1.1
15 | O=C1Nc2c(Br)cc(Br)cc2C1=Cc1ccc(CO)o1 [10739/A11] | 3.9 | 1.8
16 | COc1ccc(C=C2C(=O)Nc3ccc(I)cc32)cc1C [10739/B02] | 2.1 | 5.2
17 | O=C1Nc2ccc(I)cc2C1=Cc1cccc(OCc2ccccc2)c1 [10739/B03] | 3.5 | 1.8
18 | O=C1Nc2ccc(I)cc2C1=Cc1ccc(OCc2ccccc2)cc1 [10739/B04] | 13.2 | 19.8
19 | O=C1Nc2ccc(I)cc2C1=CC1COc2ccccc2O1 (stereo not drawn) [10739/B05] | 4.1 | 4.7
20 | O=C1Nc2ccc(I)cc2C1=Cc1ccc(O)cc1Cl [10739/B06] | 9.3 | 6.7

Row | SMILES | Flk Kinase % Inhibition (P.110) [1] [%] | PDGF Kinase % Inhibition (P.119) [2] [%]
21 | O=C1Nc2ccc(I)cc2C1=Cc1cc(O)c(O)c(O)c1 [10739/B07] | 1.1 | 19.8
22 | COc1ccc(Oc2cccc(C=C3C(=O)Nc4ccc(I)cc43)c2)cc1 [10739/B08] | 6.5 | −0.1
23 | CN(C)CCCOc1ccc(C=C2C(=O)Nc3ccc(I)cc32)cc1 [10739/B09] | −15.4 | 74.1
24 | O=C1Nc2ccc(I)cc2C1=Cc1ccoc1 [10739/B10] | −10.1 | −16.1
25 | O=C1Nc2ccc(I)cc2C1=Cc1ccc(CO)o1 [10739/B11] | 12.5 | −9.8
26 | COc1ccc(C=C2C(=O)Nc3ccc(Br)c(C)c32)cc1C [10739/C02] | −10.8 | 10.6
27 | Cc1c(Br)ccc2c1C(=Cc1cccc(OCc3ccccc3)c1)C(=O)N2 [10739/C03] | 16.4 | 10.1
28 | Cc1c(Br)ccc2c1C(=Cc1ccc(OCc3ccccc3)cc1)C(=O)N2 [10739/C04] | 21.8 | 19.3
29 | Cc1c(Br)ccc2c1C(=CC1COc3ccccc3O1)C(=O)N2 (stereo not drawn) [10739/C05] | 5.6 | 31.4
30 | Cc1c(Br)ccc2c1C(=Cc1ccc(O)cc1Cl)C(=O)N2 [10739/C06] | 17.7 | 33.8
31 | Cc1c(Br)ccc2c1C(=Cc1cc(O)c(O)c(O)c1)C(=O)N2 [10739/C07] | −14.5 | 44.5
32 | COc1ccc(Oc2cccc(C=C3C(=O)Nc4ccc(Br)c(C)c43)c2)cc1 [10739/C08] | 4.8 | 11.0
33 | Cc1c(Br)ccc2c1C(=Cc1ccc(OCCCN(C)C)cc1)C(=O)N2 [10739/C09] | 10.0 | 105.6
34 | Cc1c(Br)ccc2c1C(=Cc1ccoc1)C(=O)N2 [10739/C10] | −7.1 | −18.6
35 | Cc1c(Br)ccc2c1C(=Cc1ccc(CO)o1)C(=O)N2 [10739/C11] | 70.6 | 9.1
36 | CNS(=O)(=O)c1ccc2c(c1)C(=Cc1ccc(OC)c(C)c1)C(=O)N2 [10739/D02] | 25.6 | 17.8
37 | CNS(=O)(=O)c1ccc2c(c1)C(=Cc1cccc(OCc3ccccc3)c1)C(=O)N2 [10739/D03] | −18.3 | 14.4
38 | CNS(=O)(=O)c1ccc2c(c1)C(=Cc1ccc(OCc3ccccc3)cc1)C(=O)N2 [10739/D04] | 11.8 | 7.2
39 | CNS(=O)(=O)c1ccc2c(c1)C(=CC1COc3ccccc3O1)C(=O)N2 (stereo not drawn) [10739/D05] | 12.2 | −6.9
40 | CNS(=O)(=O)c1ccc2c(c1)C(=Cc1ccc(O)cc1Cl)C(=O)N2 [10739/D06] | 9.0 | −43.8

Row | SMILES | Flk Kinase % Inhibition (P.110) [1] [%] | PDGF Kinase % Inhibition (P.119) [2] [%]
41 | CNS(=O)(=O)c1ccc2c(c1)C(=Cc1cc(O)c(O)c(O)c1)C(=O)N2 [10739/D07] | −5.1 | 18.8
42 | CNS(=O)(=O)c1ccc2c(c1)C(=Cc1cccc(Oc3ccc(OC)cc3)c1)C(=O)N2 [10739/D08] | 14.3 | 5.7
43 | CNS(=O)(=O)c1ccc2c(c1)C(=Cc1ccc(OCCCN(C)C)cc1)C(=O)N2 [10739/D09] | −32.8 | 4.7
44 | COc1ccc(C=C2C(=O)Nc3ccc(S(=O)(=O)Nc4ccc(C(F)(F)F)cc4)cc32)cc1C [10739/E02] | 26.7 | 18.3
45 | O=C1Nc2ccc(S(=O)(=O)Nc3ccc(C(F)(F)F)cc3)cc2C1=Cc1cccc(OCc2ccccc2)c1 [10739/E03] | −119.0 | 2.8
46 | O=C1Nc2ccc(S(=O)(=O)Nc3ccc(C(F)(F)F)cc3)cc2C1=Cc1ccc(OCc2ccccc2)cc1 [10739/E04] | 17.7 | 5.2
47 | O=C1Nc2ccc(S(=O)(=O)Nc3ccc(C(F)(F)F)cc3)cc2C1=CC1COc2ccccc2O1 (stereo not drawn) [10739/E05] | 28.0 | 10.6
48 | O=C1Nc2ccc(S(=O)(=O)Nc3ccc(C(F)(F)F)cc3)cc2C1=Cc1ccc(O)cc1Cl [10739/E06] | 34.3 | 72.7
49 | O=C1Nc2ccc(S(=O)(=O)Nc3ccc(C(F)(F)F)cc3)cc2C1=Cc1cc(O)c(O)c(O)c1 [10739/E07] | 10.0 | 48.4
50 | COc1ccc(Oc2cccc(C=C3C(=O)Nc4ccc(S(=O)(=O)Nc5ccc(C(F)(F)F)cc5)cc43)c2)cc1 [10739/E08] | 17.2 | 21.7
51 | CN(C)CCCOc1ccc(C=C2C(=O)Nc3ccc(S(=O)(=O)Nc4ccc(C(F)(F)F)cc4)cc32)cc1 [10739/E09] | 24.5 | 18.3
52 | O=C1Nc2ccc(S(=O)(=O)Nc3ccc(C(F)(F)F)cc3)cc2C1=Cc1ccoc1 [10739/E10] | 11.2 | 25.6
53 | O=C1Nc2ccc(S(=O)(=O)Nc3ccc(C(F)(F)F)cc3)cc2C1=Cc1ccc(CO)o1 [10739/E11] | 15.3 | 15.9
54 | COc1ccc(C=C2C(=O)Nc3ccc(S(=O)(=O)N4CCOCC4)cc32)cc1C [10739/F02] | 25.5 | 6.2
55 | O=C1Nc2ccc(S(=O)(=O)N3CCOCC3)cc2C1=Cc1cccc(OCc2ccccc2)c1 [10739/F03] | 24.5 | −7.4
56 | O=C1Nc2ccc(S(=O)(=O)N3CCOCC3)cc2C1=Cc1ccc(OCc2ccccc2)cc1 [10739/F04] | 26.3 | −4.0
57 | O=C1Nc2ccc(S(=O)(=O)N3CCOCC3)cc2C1=CC1COc2ccccc2O1 (stereo not drawn) [10739/F05] | 8.7 | −4.5
58 | O=C1Nc2ccc(S(=O)(=O)N3CCOCC3)cc2C1=Cc1ccc(O)cc1Cl [10739/F06] | 13.7 | 9.1
